# Test results as given in patent US20260022142A1, “MACROCYCLIC IMMUNOMODULATORS” (Bristol-Myers Squibb Company, priority 2022, published 2026).
# Bridge positions count the residues as written; N and C are the ends. Square brackets hold non-standard residues; d marks the D form. Peptide text beside a SMILES is read from it. * marks the point of attachment. Phe(4-COOH) = N[C@@H](Cc1ccc(C(=O)O)cc1)C(=O)O; Bip = N[C@@H](Cc1ccc(-c2ccccc2)cc1)C(=O)O; Phe(3-Me) = Cc1cccc(C[C@H](N)C(=O)O)c1; Cha = N[C@@H](CC1CCCCC1)C(=O)O; Carboxymethyl = O=C(O)C*; Orn = NCCC[C@H](N)C(=O)O; Aun = NCCCCCCCCCCC(=O)O; Dab = NCC[C@H](N)C(=O)O; Dap = NC[C@H](N)C(=O)O; AEEA = NCCOCCOCC(=O)O
# Biological target: T1, PD-1/PD-L1 interaction (PE-labeled human PD-L1-Ig binding to Jurkat cell line over-expressing human PD-1) (Homo sapiens, UniProt Q15116)
# T1 construct: expressed in transfected cells; host or cells: Jurkat
# Assay: Jurkat-PD-1 Cell Binding High-Content Screening Assay (CBA)
# Assay type: cell-based
# Settings: Jurkat cell line over-expressing human PD-1; PE-labeled PD-L1-Ig 20 nM final; read-out: Jurkat hPD1-PDL1 IC50
# Method in brief: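 Read-out is high-content imaging of cell-bound phycoerythrin-tagged PD-L1-Ig on fixed, Hoechst-counterstained Jurkat cells that over-express human PD-1. Compound exposure lasts 2 h at 37° C before the labeled ligand (20 nM final) is added for a further hour.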
# T1 sequence (Q15116 25-288): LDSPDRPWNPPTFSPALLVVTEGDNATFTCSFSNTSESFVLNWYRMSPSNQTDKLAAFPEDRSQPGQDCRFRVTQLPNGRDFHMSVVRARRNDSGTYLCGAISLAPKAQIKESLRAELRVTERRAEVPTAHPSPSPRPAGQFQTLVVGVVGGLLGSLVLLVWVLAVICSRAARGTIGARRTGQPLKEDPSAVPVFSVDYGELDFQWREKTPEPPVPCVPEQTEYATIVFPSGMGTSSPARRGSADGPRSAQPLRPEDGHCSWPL
row,SMILES,IC50 [nM]
1,Cc1cccc(C[C@@H]2NC(=O)[C@H](CC(=O)O)NC(=O)[C@H](Cc3ccc(OCC(=O)O)cc3)NC(=O)[C@H](CN)NC(=O)CSC[C@@H](C(=O)NCCOCCOCC(=O)NCCCCCCCCCCC(=O)O)NC(=O)[C@H](CCCNC(=N)N)NC(=O)[C@H](Cc3ccc(O)cc3)NC(=O)[C@H](CC3CCCCC3)NC(=O)[C@H](CCN)NC(=O)[C@@H](CC(C)C)NC(=O)[C@H](CCCN)NC(=O)[C@H](Cc3ccc(O)cc3)NC(=O)[C@H](Cc3ccc(-c4ccccc4)cc3)NC(=O)[C@H](Cc3ccc(O)cc3)NC2=O)c1 [Compound 2520] ({CH2CO}-[Dap]Y(Carboxymethyl)D[Phe(3-Me)]Y[Bip]Y[Orn][dL][Dab][Cha]YRC[AEEA][Aun]-OH; thioether N-14),233
2,CC(C)C[C@H]1NC(=O)[C@H](CCCN)NC(=O)[C@H](Cc2ccc(O)cc2)NC(=O)[C@H](Cc2ccc(-c3ccccc3)cc2)NC(=O)[C@H](Cc2ccc(O)cc2)NC(=O)[C@H](Cc2c[nH]c3ccccc23)NC(=O)[C@H](CC(=O)O)NC(=O)[C@H](Cc2ccc(OCC(=O)O)cc2)NC(=O)[C@H](Cc2ccc(OCC(=O)O)cc2)NC(=O)CSC[C@@H](C(=O)NCCOCCOCC(=O)NCCCCCCCCCCC(=O)O)NC(=O)[C@H](CCCN)NC(=O)[C@H](Cc2ccc(O)cc2)NC(=O)[C@H](CC2CCCCC2)NC(=O)[C@H](CCN)NC1=O [Compound 2521] ({CH2CO}-Y(Carboxymethyl)Y(Carboxymethyl)DWY[Bip]Y[Orn][dL][Dab][Cha]Y[Orn]C[AEEA][Aun]-OH; thioether N-14),89.1
3,CC(C)C[C@H]1NC(=O)[C@H](CCCN)NC(=O)[C@H](Cc2ccc(O)cc2)NC(=O)[C@H](Cc2ccc(-c3ccccc3)cc2)NC(=O)[C@H](Cc2ccc(O)cc2)NC(=O)[C@H](Cc2c[nH]c3ccccc23)NC(=O)[C@H](CC(=O)O)NC(=O)[C@H](Cc2ccc(OCC(=O)O)cc2)NC(=O)[C@H](Cc2ccc(OCC(=O)O)cc2)NC(=O)CSC[C@@H](C(=O)NCCOCCOCC(=O)NCCCCCCCCCCC(=O)O)NC(=O)[C@H](CN)NC(=O)[C@H](Cc2ccc(O)cc2)NC(=O)[C@H](CC2CCCCC2)NC(=O)[C@H](CCN)NC1=O [Compound 2522] ({CH2CO}-Y(Carboxymethyl)Y(Carboxymethyl)DWY[Bip]Y[Orn][dL][Dab][Cha]Y[Dap]C[AEEA][Aun]-OH; thioether N-14),340
4,CC(C)C[C@H]1NC(=O)[C@H](CCCN)NC(=O)[C@H](C(C)C)NC(=O)[C@H](Cc2ccc(-c3ccccc3)cc2)NC(=O)[C@H](C(C)C)NC(=O)[C@H](Cc2c[nH]c3ccccc23)NC(=O)[C@H](CC(=O)O)NC(=O)[C@H](Cc2ccc(OCC(=O)O)cc2)NC(=O)[C@H](Cc2ccc(OCC(=O)O)cc2)NC(=O)CSC[C@@H](C(=O)N[C@@H](CCCCN)C(=O)NCCOCCOCC(=O)NCCCCCCCCCCC(=O)O)NC(=O)[C@H](CCCN)NC(=O)[C@H](C(C)C)NC(=O)[C@H](CC2CCCCC2)NC(=O)[C@H](CCN)NC1=O [Compound 2529] ({CH2CO}-Y(Carboxymethyl)Y(Carboxymethyl)DWV[Bip]V[Orn][dL][Dab][Cha]V[Orn]CK[AEEA][Aun]-OH; thioether N-14),12.7
5,CC(C)C[C@H]1NC(=O)[C@H](CCCN)NC(=O)[C@H](C(C)C)NC(=O)[C@H](Cc2ccc(-c3ccccc3)cc2)NC(=O)[C@H](C(C)C)NC(=O)[C@H](Cc2c[nH]c3ccccc23)NC(=O)[C@H](CC(=O)O)NC(=O)[C@H](Cc2ccc(OCC(=O)O)cc2)NC(=O)[C@H](Cc2ccc(OCC(=O)O)cc2)NC(=O)CSC[C@@H](C(=O)N[C@@H](CCCCN)C(=O)NCCOCCOCC(=O)NCCCCCCCCCCC(=O)O)NC(=O)[C@H](CN)NC(=O)[C@H](C(C)C)NC(=O)[C@H](CC2CCCCC2)NC(=O)[C@H](CCN)NC1=O [Compound 2530] ({CH2CO}-Y(Carboxymethyl)Y(Carboxymethyl)DWV[Bip]V[Orn][dL][Dab][Cha]V[Dap]CK[AEEA][Aun]-OH; thioether N-14),10.9
6,CC(C)C[C@H]1NC(=O)[C@H](CCCN)NC(=O)[C@H](C(C)C)NC(=O)[C@H](Cc2ccc(-c3ccccc3)cc2)NC(=O)[C@H](C(C)C)NC(=O)[C@H](Cc2c[nH]c3ccccc23)NC(=O)[C@H](CC(=O)O)NC(=O)[C@H](Cc2ccc(C(=O)O)cc2)NC(=O)[C@H](Cc2ccc(OCC(=O)O)cc2)NC(=O)CSC[C@@H](C(=O)N[C@@H](CCCCN)C(=O)NCCCCCCCCCCC(=O)O)NC(=O)[C@H](CCCCN)NC(=O)[C@H](C(C)C)NC(=O)[C@H](CC2CCCCC2)NC(=O)[C@H](CCN)NC1=O [Compound 2531] ({CH2CO}-Y(Carboxymethyl)[Phe(4-COOH)]DWV[Bip]V[Orn][dL][Dab][Cha]VKCK[Aun]-OH; thioether N-14),22.2
7,CC(C)C[C@H]1NC(=O)[C@H](CCCN)NC(=O)[C@H](C(C)C)NC(=O)[C@H](Cc2ccc(-c3ccccc3)cc2)NC(=O)[C@H](C(C)C)NC(=O)[C@H](Cc2c[nH]c3ccccc23)NC(=O)[C@H](CC(=O)O)NC(=O)[C@H](Cc2ccc(OCC(=O)O)cc2)NC(=O)[C@H](Cc2ccc(OCC(=O)O)cc2)NC(=O)CSC[C@@H](C(=O)N[C@@H](CCCCN)C(=O)NCCCCCCCCCCC(=O)O)NC(=O)[C@H](CCCNC(=N)N)NC(=O)[C@H](C(C)C)NC(=O)[C@H](CC2CCCCC2)NC(=O)[C@H](CCN)NC1=O [Compound 2532] ({CH2CO}-Y(Carboxymethyl)Y(Carboxymethyl)DWV[Bip]V[Orn][dL][Dab][Cha]VRCK[Aun]-OH; thioether N-14),34.6
8,CC(C)C[C@H]1NC(=O)[C@H](CCCN)NC(=O)[C@H](C(C)C)NC(=O)[C@H](Cc2ccc(-c3ccccc3)cc2)NC(=O)[C@H](C(C)C)NC(=O)[C@H](Cc2c[nH]c3ccccc23)NC(=O)[C@H](CC(=O)O)NC(=O)[C@H](Cc2ccc(OCC(=O)O)cc2)NC(=O)[C@H](CN)NC(=O)CSC[C@@H](C(=O)N[C@@H](CCCCN)C(=O)NCCCCCCCCCCC(=O)O)NC(=O)[C@H](CCCCN)NC(=O)[C@H](C(C)C)NC(=O)[C@H](CC2CCCCC2)NC(=O)[C@H](CCN)NC1=O [Compound 2533] ({CH2CO}-[Dap]Y(Carboxymethyl)DWV[Bip]V[Orn][dL][Dab][Cha]VKCK[Aun]-OH; thioether N-14),23.8

# The remaining lines, values ahead:
row,IC50 [nM],SMILES
1,7.6,CC(C)C[C@H]1NC(=O)[C@H](CCCN)NC(=O)[C@H](C(C)C)NC(=O)[C@H](Cc2ccc(-c3ccccc3)cc2)NC(=O)[C@H](C(C)C)NC(=O)[C@H](Cc2c[nH]c3ccccc23)NC(=O)[C@H](CC(=O)O)NC(=O)[C@H](Cc2ccc(C(=O)O)cc2)NC(=O)[C@H](Cc2ccc(OCC(=O)O)cc2)NC(=O)CSC[C@@H](C(=O)N[C@@H](CCCCN)C(=O)NCCOCCOCC(=O)NCCCCCCCCCCC(=O)O)NC(=O)[C@H](CCCCN)NC(=O)[C@H](C(C)C)NC(=O)[C@H](CC2CCCCC2)NC(=O)[C@H](CCN)NC1=O [Compound 2523] ({CH2CO}-Y(Carboxymethyl)[Phe(4-COOH)]DWV[Bip]V[Orn][dL][Dab][Cha]VKCK[AEEA][Aun]-OH; thioether N-14)
2,16.5,CC(C)C[C@H]1NC(=O)[C@H](CCCN)NC(=O)[C@H](C(C)C)NC(=O)[C@H](Cc2ccc(-c3ccccc3)cc2)NC(=O)[C@H](C(C)C)NC(=O)[C@H](Cc2c[nH]c3ccccc23)NC(=O)[C@H](CC(=O)O)NC(=O)[C@H](Cc2ccc(OCC(=O)O)cc2)NC(=O)[C@H](CN)NC(=O)CSC[C@@H](C(=O)N[C@@H](CCCCN)C(=O)NCCOCCOCC(=O)NCCCCCCCCCCC(=O)O)NC(=O)[C@H](CCCCN)NC(=O)[C@H](C(C)C)NC(=O)[C@H](CC2CCCCC2)NC(=O)[C@H](CCN)NC1=O [Compound 2525] ({CH2CO}-[Dap]Y(Carboxymethyl)DWV[Bip]V[Orn][dL][Dab][Cha]VKCK[AEEA][Aun]-OH; thioether N-14)
3,7.2,Cc1cccc(C[C@@H]2NC(=O)[C@H](CC(=O)O)NC(=O)[C@H](Cc3ccc(OCC(=O)O)cc3)NC(=O)[C@H](CN)NC(=O)CSC[C@@H](C(=O)N[C@@H](CCCCN)C(=O)NCCOCCOCC(=O)NCCCCCCCCCCC(=O)O)NC(=O)[C@H](CN)NC(=O)[C@H](C(C)C)NC(=O)[C@H](CC3CCCCC3)NC(=O)[C@H](CCN)NC(=O)[C@@H](CC(C)C)NC(=O)[C@H](CCCN)NC(=O)[C@H](C(C)C)NC(=O)[C@H](Cc3ccc(-c4ccccc4)cc3)NC(=O)[C@H](C(C)C)NC2=O)c1 [Compound 2526] ({CH2CO}-[Dap]Y(Carboxymethyl)D[Phe(3-Me)]V[Bip]V[Orn][dL][Dab][Cha]V[Dap]CK[AEEA][Aun]-OH; thioether N-14)
4,6.8,Cc1cccc(C[C@@H]2NC(=O)[C@H](CC(=O)O)NC(=O)[C@H](Cc3ccc(OCC(=O)O)cc3)NC(=O)[C@H](CN)NC(=O)CSC[C@@H](C(=O)N[C@@H](CCCCN)C(=O)NCCOCCOCC(=O)NCCCCCCCCCCC(=O)O)NC(=O)[C@H](CCCN)NC(=O)[C@H](C(C)C)NC(=O)[C@H](CC3CCCCC3)NC(=O)[C@H](CCN)NC(=O)[C@@H](CC(C)C)NC(=O)[C@H](CCCN)NC(=O)[C@H](C(C)C)NC(=O)[C@H](Cc3ccc(-c4ccccc4)cc3)NC(=O)[C@H](C(C)C)NC2=O)c1 [Compound 2527] ({CH2CO}-[Dap]Y(Carboxymethyl)D[Phe(3-Me)]V[Bip]V[Orn][dL][Dab][Cha]V[Orn]CK[AEEA][Aun]-OH; thioether N-14)
5,7.8,Cc1cccc(C[C@@H]2NC(=O)[C@H](CC(=O)O)NC(=O)[C@H](Cc3ccc(OCC(=O)O)cc3)NC(=O)[C@H](CN)NC(=O)CSC[C@@H](C(=O)N[C@@H](CCCCN)C(=O)NCCOCCOCC(=O)NCCCCCCCCCCC(=O)O)NC(=O)[C@H](CCCNC(=N)N)NC(=O)[C@H](C(C)C)NC(=O)[C@H](CC3CCCCC3)NC(=O)[C@H](CCN)NC(=O)[C@@H](CC(C)C)NC(=O)[C@H](CCCN)NC(=O)[C@H](C(C)C)NC(=O)[C@H](Cc3ccc(-c4ccccc4)cc3)NC(=O)[C@H](C(C)C)NC2=O)c1 [Compound 2528] ({CH2CO}-[Dap]Y(Carboxymethyl)D[Phe(3-Me)]V[Bip]V[Orn][dL][Dab][Cha]VRCK[AEEA][Aun]-OH; thioether N-14)
